Source: patent publication US20220412989A1, “COMPOSITIONS AND METHODS FOR DETECTING CELLS UNDERGOING FERROPTOSIS USING AN ANTIBODY” (THE TRUSTEES OF COLUMBIA UNIVERSITY IN THE CITY OF NEW YORK, priority 2020, published 2022)

Columns and labels:
Assay type in all cases: cell-based, human
[1] = tested on: HT-1080 cells; experiment: Nucleus area by immunofluorescence (DAPI, CellProfiler)
Protocol: HT-1080 (ATCC Cat #CRL-7951, RRID:CVCL_0317), A-673, SK-BR-3, SK-LMS-1 and Huh-7 cells were treated with 1 μM RSL3 for 4 h, 15 μM erastin for 8 h, 10 μM IKE for 8 h, 15 μM FINO2 for 8 h, 10 μM FIN56 for 8 h, 100 μM tBuOOH for 8 h, 1 μM staurosporine (STS) for 6 h, 2 μM camptothecin (CPT) for 24 h, 1 μM RSL3+5 μM Fer-1 for 4 h and 10 μM IKE+5 μM Fer-1 for 8 h on poly-lysine-coated cover slips (Sigma Aldrich P4832) in 24-well plate. Media were taken out and the cells were gently washed with PBS^++ (PBS with 1 mM CaCl2) and 0.5 mM MgCl2) twice. The cells were fixed and permeabilized by adding 200 μL/well of 4% paraformaldehyde (PFA) in PBS with 0.1% Triton X-100 (PBT), and incubated at room temperature for 18 min. The cells were then washed with PBT three times. Then the cells were blocked with 5% goat serum (ThermoFisher 50197Z) in PBT for 1 h at room temperature. The cells were incubated with purified mouse monoclonal antibodies (1:5 dilution), mouse mAb 3F3 FMA (1:500 dilution), Transferrin Receptor/CD71 Monoclonal Antibody, Clone: H68.4, Invitrogen (Thermo Fisher Scientific Cat #13-6800, RRID:AB_2533029, 1:250 dilution), Cd71 (D7G9X) XP® Rabbit mAb (Cell Signaling Technology Cat #13113, RRID:AB_2715594, 1:100 dilution), CD71 (3B8 2A1) (Santa Cruz Biotechnology Cat #sc-32272, RRID:AB_627167, 1:50 dilution), Tom20 (FL-145) (Santa Cruz Biotechnology Cat #sc-11415, RRID:AB_2207533, 1:250 dilution), PDI antibody [RL90]—ER Marker (Abcam Cat #ab2792, RRID:AB_303304, 1:100 dilution), Gm130 (D6B1) XP® Rabbit mAb (Cell Signaling Technology Cat #12480, RRID:AB_2797933, 1:3200 dilution), Anti-Malondialdehyde antibody (Abcam Cat #ab6463, RRID:AB_305484, 1:400 dilution), Anti-4 Hydroxynonenal antibody (Abcam Cat #ab46544, RRID:AB_722493, 1:50 dilution), ACSL4 Antibody (F-4) (Santa Cruz Biotechnology Cat #sc-365230, RRID:AB_10843105, 1:50 dilution), mouse mAb 1F83 (1:100 dilution), which specifically recognizes the malondialdehyde (MDA)-lysine adduct 4-methyl-1,4-dihydropyridine-3,5-dicarbaldehyde (MDHDC) (Yamada et al., 2001), in PBT with 1% BSA and 5% goat serum overnight at 4° C. The cells were washed with PBT for 5 min three times. The cells were incubated with Goat anti-Mouse IgG (H+L) Highly Cross-Adsorbed Secondary Antibody, Alexa Fluor 594 (Thermo Fisher Scientific Cat #A-11032, RRID:AB_2534091, 1:200 dilution) or Goat anti-Rabbit IgG (H+L) Highly Cross-Adsorbed Secondary Antibody, Alexa Fluor 488 (Thermo Fisher Scientific Cat #A-11034, RRID:AB_2576217, 1:200 dilution) at room temperature for 1 h. The cells were washed with PBT for 5 min three times. ProLong Diamond antifade mountant with DAPI (ThermoFisher P36962) was added to stain the nucleus. All images were captured on a Zeiss LSM 800 confocal microscope at Plan-Apochromat 63x/1.40 Oil DIC objective with constant laser intensity for all samples. When applicable, line-scan analysis was performed on representative confocal microscopy images using Zeiss LSM software to qualitatively visualize fluorescence overlap.
The quantification of the intensity of antibodies was analyzed using CellProfiler 3.1.8 (Carpenter et al., 2006) (CellProfiler Image Analysis Software, RRID:SCR_007358). Nuclei were firstly identified as primary objects using global minimum cross entropy strategy. […] Then mean intensities and size areas of nuclei, cytoplasm and plasma membranes were then measured and reported. […]

[2] = tested on: HT-1080 cells; experiment: Nucleus area by high-content analysis
Protocol: For the screening with five technical replicates, HT-1080 cells were washed with PBS, trypsinized and resuspended in cell culture medium. The cell suspension (2,000 cells in 50 μl per well) was dispensed into collagen (Sigma-Aldrich, St. Louis, Mass., USA) pre-coated 384-well plates (PerkinElmer 384-well CellCarrierUltra™). 24 h after seeding, medium was exchanged to medium containing 0.3 μM RSL3 (1 mM stock solution) dissolved in 100% dimethyl sulfoxide (DMSO) or DMSO alone. 50 μl medium with 0.3 μM RSL3/DMSO was added per well. The cells were then incubated (37° C.; 5% CO2) for 2.5 h prior to fixation and antibody staining. […] Finally, plates were recorded using the automated Operetta® microscope with the 20× high NA objective for high-resolution images (PerkinElmer, USA). For quantification, three images of each condition were recorded using three channels (Hoechst, Alexa488, TRITC). […] Quantification on cell number, cytoplasmic intensity, nucleus intensity and spot number per cell was performed using the Columbus Software (PerkinElmer, USA).
Multiparametric image analysis was performed using Columbus Software 2.8.0 (PerkinElmer). […] In a next step we have calculated the morphology and Alexa488 fluorescence intensity in each cell region (nucleus and cytoplasm). […] Each spot was detected as a small region within the corresponding image by having a higher intensity than its surrounding area. […]

[3] = tested on: HT-1080 cells; experiment: Cell death after RSL3 incubation; settings: 1 μM RSL3, 4 h incubation

For `COC(=O)c1ccc([C@@H]2c3[nH]c4ccccc4c3C[C@@H](C(=O)OC)N2C(=O)CCl)cc1` [RSL3, (1S, 3R)-RSL3], the “nuclei shrank by (mean nucleus area)” value ([1]; 1 μM RSL3, 4 h incubation) was 27%, the “decrease of average nucleus area vs DMSO group” value ([2]; RSL3-treated plates 4-6) was 17% and the average nucleus area ([2]; RSL3-treated plates 4-6 (DMSO group 240 μm^2)) was 200 μm^2. It also gave an HT-1080 cells died [3] of 30%.
In the case of `O=S(=O)(NC1CCCCC1)c1ccc2c(c1)C(=NO)c1cc(S(=O)(=O)NC3CCCCC3)ccc1-2` [FIN56, ferroptosis inducer 56], the “nuclei shrank by (mean nucleus area)” value ([1]; 10 μM FIN56, 8 h incubation) is reported as 17%.
With `CC1(CCO)CC2(CCC(C(C)(C)C)CC2)OO1` (centres unmarked) [FINO2, ferroptosis inducer endoperoxide] the “nuclei shrank by (mean nucleus area)” value ([1]; 15 μM FINO2, 8 h incubation) was 49%.
With `CCOc1ccccc1-n1c(C(C)N2CCN(C(=O)COc3ccc(Cl)cc3)CC2)nc2ccccc2c1=O` (centres unmarked) [erastin] the “nuclei shrank by (mean nucleus area)” value ([1]; 15 μM erastin, 8 h incubation) was 21%.
With `CC(C)Oc1ccc(C(=O)Cn2ccnc2)cc1-n1c(CN2CCN(C(=O)COc3ccc(Cl)cc3)CC2)nc2ccccc2c1=O` [IKE, imidazole ketone erastin] the “nuclei shrank by (mean nucleus area)” value ([1]; 10 μM IKE, 8 h incubation) was 12%.
